Assays:
Type in all cases: cell-based
HBsAg = assay: PHH HBV natural infection assay, HBsAg (alphalisa); settings: Hepatitis B virus, Hepatocyte, 72 h, read-out: HBsAg IC50, HBV-infected primary human hepatocytes, supernatant, compound medium refreshed two times with 72-hour interval
Method: (§1) Detailed procedures regarding primary human hepatocyte (PHH) HBV natural infection assay are described as below. One tube of frozen PHH (10 million cells) is thawed in 37° C. water bath and then transferred to 20 mL of PHH thawing medium (Sigma, InVitroGRO HT Medium, Cat. S03319) with gently mixing. The cells were then centrifuged at […] for 5 min, the supernatant was discarded and the tube was refilled with 25 mL of PHH plating medium (Sigma, InVitroGRO CP Medium, Cat. S03317). The tube was shaken very gently to re-suspend all cells, and then 50 μl of cells were transferred to each well 384-well collagen I coated plate with appropriate liquid handling equipment, e.g. Integra VIAFLO384 or Agilent Bravo. The cells were then cultured for 24 hours in a cell incubator. For HBV infection, after PHH attachment on the culture plate, the plating medium was removed and replenished with PHH culture medium containing HBV virus. The PHH culture medium was prepared with Dulbecco's Modified Eagle Medium (DMEM)/F12 (1:1 in volume ratio) containing 10% fetal bovine serum (Gibco, Cat. 10099141), 5 ng/mL human epidermal growth factor (Gibco, Cat.PHG0311L), 20 ng/mL dexamethasone (Sigma, Cat.D4902-100 mg), 250 ng/mL human recombinant insulin (Gibco, Cat.41400045) and 100 U/mL penicillin. HBV virus at 200 genome equivalent (GE) per cell with 4% PEG8000 (Sigma, Cat.P1458) containing culture medium were added to the PHH culture medium for infection. The cells were then cultured for 24 hours in cell incubator. Then the cell culture supernatant was removed. The HBV-infected PHH were cultured with sandwich culture method with PHH culture medium containing 1% DMSO and 0.25 mg/mL matrix gel for 72 hours. The supernatant was then refreshed with PHH culture medium containing different concentrations of testing compounds for two times with 72-hour interval. At the end of treatment, the supernatant was collected for viral markers measurements, including HBsAg, HBeAg, HBV DNA and cytotoxicity. HBsAg and HBeAg were detected using alphalisa method using their specific antibodies. For HBV DNA detection, HBV DNA Quantitative Fluorescence Diagnostic Kit (Sansure Biotech Inc.) was used following the manufacture's protocol. Cytotoxicity was determined using Cell Counting Kit-8 (CCK8, Dojindo Molecular Technologies, Inc.).
(§2) The compounds of the present invention were tested for their capacity to inhibit HBsAg and HBeAg as described herein.

HBeAg = assay: PHH HBV natural infection assay, HBeAg (alphalisa); settings: Hepatitis B virus, Hepatocyte, 72 h, read-out: HbeAg IC50, HBV-infected primary human hepatocytes, supernatant, compound medium refreshed two times with 72-hour interval
Method: as §1, §2

[1] = PHH natural infection assay, cytotoxicity (Cell Counting Kit-8); settings: human, HBV-infected primary human hepatocytes, CCK8, end of treatment
Method: as §1

Structure (SMILES)	IC50 (HBsAg)	IC50 (HBeAg)	CC50 at 144 h [1]
CC(C)S(=O)(=O)Cc1ccc(C(=O)NC2CC3(C2)CC(c2nc4cc(Cl)ccc4o2)C3)o1 (stereo not drawn) [Example 44, N-[6-(5-chloro-1,3-benzoxazol-2-yl)spiro[3.3]heptan-2-yl]-5-(isopropylsulfonylmethyl)furan-2-carboxamide]	1.8 µM	1.55 µM	95.8 µM
NS(=O)(=O)CCc1ccc(C(=O)NC2CC3(C2)CC(c2nc4cc(Cl)ccc4o2)C3)o1 (stereo not drawn) [Example 34, N-[6-(5-chloro-1,3-benzoxazol-2-yl)spiro[3.3]heptan-2-yl]-5-(2-sulfamoylethyl)furan-2-carboxamide]	8.78 µM	5.84 µM	> 100 µM
O=C(N[C@H]1CC2(C1)C[C@H](c1nc3cc(Cl)ccc3o1)C2)c1ccc(S(=O)(=O)NC(=O)C2CCOC2)o1 (stereo partly drawn) [Example 77, (Sa)—N-[6-(5-chloro-1,3-benzoxazol-2-yl)spiro[3.3]heptan-2-yl]-5-(tetrahydrofuran-3-carbonylsulfamoyl)furan-2-carboxamide, or (Ra)—N-[6-(5-chloro-1,3-benzoxazol-2-yl)spiro[3.3]heptan-2-yl]-5-(tetrahydrofuran-3-carbonylsulfamoyl)furan-2-carboxamide]	1.16 µM	0.563 µM	> 100 µM
O=C(N[C@H]1CC2(C1)C[C@H](c1nc3cc(Cl)ccc3o1)C2)c1ccc(S(=O)(=O)NC(=O)C2CCC2)o1 (single isomer, unassigned) [Example 72, (Sa)—N-[6-(5-chloro-1,3-benzoxazol-2-yl)spiro[3.3]heptan-2-yl]-5-(cyclobutanecarbonylsulfamoyl)furan-2-carboxamide, or (Ra)—N-[6-(5-chloro-1,3-benzoxazol-2-yl)spiro[3.3]heptan-2-yl]-5-(cyclobutanecarbonylsulfamoyl)furan-2-carboxamide]	0.314 µM	0.386 µM	> 100 µM
NS(=O)(=O)NCc1ccc(C(=O)NC2CC3(C2)CC(c2nc4cc(Cl)ccc4o2)C3)o1 (stereo not drawn) [Example 35, N-[6-(5-chloro-1,3-benzoxazol-2-yl)spiro[3.3]heptan-2-yl]-5-[(sulfamoylamino)methyl]furan-2-carboxamide]	7.81 µM	6.53 µM	98.3 µM
CC(C)C(=O)NS(=O)(=O)c1ccc(C(=O)N[C@H]2CC3(C2)C[C@H](c2nc4cc(Cl)ccc4o2)C3)o1 (single isomer, unassigned) [Example 70, (Sa)—N-[6-(5-chloro-1,3-benzoxazol-2-yl)spiro[3.3]heptan-2-yl]-5-(2-methylpropanoylsulfamoyl)furan-2-carboxamide, or (Ra)—N-[6-(5-chloro-1,3-benzoxazol-2-yl)spiro[3.3]heptan-2-yl]-5-(2-methylpropanoylsulfamoyl)furan-2-carboxamide]	0.361 µM	0.376 µM	> 100 µM
N=S(=O)(c1ccc(C(=O)NC2CC3(C2)CC(c2nc4cnc(Cl)cc4o2)C3)o1)C1CC1 (stereo not drawn) [Example 65, N-[6-(6-chlorooxazolo[4,5-c]pyridin-2-yl)spiro[3.3]heptan-2-yl]-5-(cyclopropylsulfonimidoyl)furan-2-carboxamide]	6.38 µM	5.83 µM	> 100 µM
O=C(NC1CC2(C1)CC(c1nc3cc(Cl)cnc3o1)C2)c1ccc(S(=O)(=O)C2CC2)o1 (stereo not drawn) [Example 49, N-[6-(6-chlorooxazolo[5,4-b]pyridin-2-yl)spiro[3.3]heptan-2-yl]-5-cyclopropylsulfonyl-furan-2-carboxamide]	2.4 µM	1.74 µM	84.5 µM
CC(C)c1ccc(C(=O)NC2CC3(C2)CC(c2nc4cc(Cl)ccc4o2)C3)o1 (stereo not drawn) [Example 7, N-[6-(5-chloro-1,3-benzoxazol-2-yl)spiro[3.3]heptan-2-yl]-5-isopropyl-furan-2-carboxamide]	3.57 µM	1.34 µM	85.9 µM
CCS(=N)(=O)Cc1ccc(C(=O)NC2CC3(C2)CC(c2nc4cc(Cl)ccc4o2)C3)o1 (stereo not drawn) [Example 58, N-[6-(5-chloro-1,3-benzoxazol-2-yl)spiro[3.3]heptan-2-yl]-5-[(ethylsulfonimidoyl)methyl]furan-2-carboxamide]	8.79 µM	5.88 µM	> 100 µM
Cn1cc(C(=O)NC2CC3(C2)CC(c2nc4cc(Cl)ccc4o2)C3)cn1 (stereo not drawn) [Example 13, N-[6-(5-chloro-1,3-benzoxazol-2-yl)spiro[3.3]heptan-2-yl]-1-methyl-pyrazole-4-carboxamide]	9.81 µM	6.2 µM	> 100 µM
CC(C)CS(=O)(=O)c1ccc(C(=O)NC2CC3(C2)CC(c2nc4cc(Cl)ccc4o2)C3)o1 (stereo not drawn) [Example 22, N-[6-(5-chloro-1,3-benzoxazol-2-yl)spiro[3.3]heptan-2-yl]-5-isobutylsulfonyl-furan-2-carboxamide]	0.506 µM	0.264 µM	75.6 µM
O=C(NC1CC2(C1)CC(c1nc3cc(Cl)ccc3o1)C2)c1ccc(S(=O)(=O)CC2COC2)o1 (stereo not drawn) [Example 24, N-[6-(5-chloro-1,3-benzoxazol-2-yl)spiro[3.3]heptan-2-yl]-5-(oxetan-3-ylmethylsulfonyl)furan-2-carboxamide]	2.44 µM	2.33 µM	95.3 µM
O=C(NC1CC2(C1)CC(c1nc3cc(Cl)ccc3o1)C2)c1ccc(S(=O)(=O)CC2CC2)o1 (stereo not drawn) [Example 20, N-[6-(5-chloro-1,3-benzoxazol-2-yl)spiro[3.3]heptan-2-yl]-5-(cyclopropylmethylsulfonyl)furan-2-carboxamide]	0.445 µM	0.18 µM	89.2 µM
CS(=O)(=O)c1ccc(C(=O)NC2CC3(C2)CC(c2nc4cc(Cl)ccc4o2)C3)s1 (stereo not drawn) [Example 45, N-[6-(5-chloro-1,3-benzoxazol-2-yl)spiro[3.3]heptan-2-yl]-5-methylsulfonyl-thiophene-2-carboxamide]	2.21 µM	1.9 µM	> 100 µM
CN(C)S(=O)(=O)c1ccc(C(=O)NC2CC3(C2)CC(c2nc4cc(Cl)ccc4o2)C3)o1 (stereo not drawn) [Example 89, N-[6-(5-chloro-1,3-benzoxazol-2-yl)spiro[3.3]heptan-2-yl]-5-(dimethylsulfamoyl)furan-2-carboxamide]	1.04 µM	0.723 µM	> 10 µM
O=C(NC1CC2(C1)CC(c1nc3cc(Cl)cnc3o1)C2)c1ccc([S+]([O-])C2CC2)o1 (stereo not drawn) [Example 50, N-[6-(6-chlorooxazolo[5,4-b]pyridin-2-yl)spiro[3.3]heptan-2-yl]-5-cyclopropylsulfinyl-furan-2-carboxamide]	0.54 µM	0.35 µM	> 100 µM
COc1ccc(C(=O)NC2CC3(C2)CC(c2nc4cc(Cl)ccc4o2)C3)o1 (stereo not drawn) [Example 8, N-[6-(5-chloro-1,3-benzoxazol-2-yl)spiro[3.3]heptan-2-yl]-5-methoxy-furan-2-carboxamide]	7.96 µM	5.84 µM	94.2 µM
O=C(NC1CC2(C1)CC(c1nc3cc(Cl)ccc3o1)C2)c1ccc(S(=O)(=O)NC(=O)C2CCCC2)o1 (stereo not drawn) [Example 81, N-[6-(5-chloro-1,3-benzoxazol-2-yl)spiro[3.3]heptan-2-yl]-5-(cyclopentanecarbonylsulfamoyl)furan-2-carboxamide]	1.74 µM	0.796 µM	11.3 µM

Reference: US20230286969A1, “AROMATIC SPIRO RING AMIDE DERIVATIVES FOR THE TREATMENT AND PROPHYLAXIS OF HEPATITIS B VIRUS INFECTION” (Hoffmann-La Roche Inc., priority 2020, published 2023)
